The values that follow come from patent US20200093808A1, “Methods for the Administration of Certain VMAT2 Inhibitors” (Neurocrine Biosciences, Inc., priority 2017, published 2020).

The target in one data set is T1, human VMAT1 transporter (Homo sapiens, UniProt P54219).
T1 construct: expressed in transfected cells
T1 sequence (P54219 1-525): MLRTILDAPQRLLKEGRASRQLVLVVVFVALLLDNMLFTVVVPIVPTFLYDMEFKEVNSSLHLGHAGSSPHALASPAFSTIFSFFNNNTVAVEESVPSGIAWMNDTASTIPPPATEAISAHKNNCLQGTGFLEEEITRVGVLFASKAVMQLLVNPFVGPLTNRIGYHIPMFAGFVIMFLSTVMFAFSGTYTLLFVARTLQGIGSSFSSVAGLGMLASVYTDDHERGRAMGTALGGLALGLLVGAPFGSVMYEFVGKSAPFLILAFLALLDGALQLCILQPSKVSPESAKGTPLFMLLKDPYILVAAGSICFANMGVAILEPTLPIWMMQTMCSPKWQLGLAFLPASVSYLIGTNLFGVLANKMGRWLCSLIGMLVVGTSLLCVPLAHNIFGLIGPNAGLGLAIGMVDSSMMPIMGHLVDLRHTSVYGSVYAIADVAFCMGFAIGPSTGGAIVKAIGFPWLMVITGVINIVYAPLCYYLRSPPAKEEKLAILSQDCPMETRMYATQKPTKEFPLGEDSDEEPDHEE
Briefly: Uptake in cells expressing VMAT1. Format: cell-based. As to conditions: concentrations up to 10 μM.

Data set [1] relates to more than 80 targets (GPCRs, cell-surface monoamine transporters, ion channels including HERG). Nature of the data set: Cerep multi-target activity screen. Conditions: broad panel screen.
Data set [2] is described as follows: Phase 1 open-label drug interaction study: effect of ketoconazole on the pharmacokinetics of NBI-98854 in healthy subjects. In kind it is in vivo, human. Conditions: for half-life: read-out: t1/2 Mean (SD) (converted); for CL/F Mean (SD): analyte NBI-98854; for AUC(0-inf): read-out: AUC0-∞ Mean (SD); for Cmax: read-out: Cmax Mean (SD). On the procedure:
All subjects received the same treatment. […] Subjects were given meals upon completion of study assessments/dosing and at regular meal times during their stay in the research unit. […] Blood specimens to determine ketoconazole plasma concentrations were collected predose through Day 9. Safety and tolerability was assessed through Day 10. […] The tmax was analyzed using non-parametric methods. […] Safety data were summarized using descriptive statistics.

Data set [3] in a line: Safety and tolerability in the Phase 1 ketoconazole interaction study. In kind it is in vivo. As to conditions: for Subjects with TEAE: Constipation / Subjects with TEAE: Dizziness postural / Subjects with TEAE: Gastrointestinal Disorders / Subjects with TEAE: Headache / Subjects with TEAE: Injury, Poisoning and Procedural Complications / Subjects with TEAE: Nausea / Subjects with TEAE: Nervous System Disorders / Subjects with TEAE: Procedural dizziness / Subjects with treatment-emergent adverse event: Overall: N = 24. As to the method:
This was a Phase 1, single-center, open-label, drug interaction study conducted in 24 healthy male and female subjects.
All subjects received the same treatment. Subjects received a single dose of 50 mg NBI-98854 on Days 1 and 6 at approximately 0800 hours. In addition, subjects received 200 mg ketoconazole twice daily (bid) on Days 5 through 9 at approximately 0800 and 2000 hours. Subjects were required to fast overnight from approximately 10 hours before until 4 hours after NBI-98854 dose on Days 1 and 6. Subjects were given meals upon completion of study assessments/dosing and at regular meal times during their stay in the research unit.
TEAEs are summarized below. There were no pretreatment AEs. […] Five subjects (20.8%) experienced 6 AEs during the study; all AEs occurred after the initial treatment with NBI-98854 alone. […] The only AE that occurred in >1 subject was headache (2 subjects, 8.3%). […] Two events were considered possibly related to study drug, 1 event of headache and the event of dizziness postural. The other event of headache was considered unlikely related to study drug.

[4] abbreviates: NBI-98854 (50 mg) + Ketoconazole (200 mg).
[5] abbreviates: both sexes, human, oral, analyte NBI-98854 in plasma, NBI-98854 (50 mg) alone, N = 24.
Setting [6] is: both sexes, human, oral, analyte NBI-98854 in plasma, NBI-98854 (80 mg) + Ketoconazole (200 mg), N = 24.

“Also recorded” adds a separate entry of the source. Where two headings read alike, the source gives them in different places.

Consider `COc1cc2c(cc1OC)C1CC(=O)C(CC(C)C)CN1CC2` (centres unmarked) [TBZ, Tetrabenazine, reference compound], for which the “inhibition of uptake through VMAT1” value against human VMAT1 transporter is “no significant inhibitory activity; also recorded: no significant effect”.
As to `COc1cc2c(cc1OC)[C@H]1C[C@@H](O)[C@H](CC(C)C)CN1CC2` [NBI-98782, (2R, 3R,11bR)-3-isobutyl-9,10-dimethoxy-1,3,4,6,7,11b-hexahydro-2H-pyrido[2,1-a]isoquinolin-2-ol], in data set [1], the “affinity for more than 80 binding sites, including receptors, monoamine transporters, and ion channels” value is “little to no affinity”. Also, the half-life in data set [2] (both sexes, human, plasma, oral, 50 mg) is 18 h. Also, the “inhibition of uptake through VMAT1” value on human VMAT1 transporter (listed as R,R,R-DHTBZ) is listed as “no significant inhibitory activity; also recorded: no significant effect”.
`COC(=O)[C@H]1[C@H]2C[C@@H]3c4[nH]c5cc(OC)ccc5c4CCN3C[C@H]2C[C@@H](OC(=O)c2cc(OC)c(OC)c(OC)c2)[C@@H]1OC` [reserpine, reference compound]: at human VMAT1 transporter, the “inhibition of uptake through VMAT1” value was “substantially inhibited uptake through VMAT1”.
Turning to `COc1cc2c(cc1OC)[C@H]1C[C@@H](OC(=O)[C@@H](N)C(C)C)[C@H](CC(C)C)CN1CC2` [NBI-98854, (S)-2-amino-3-methyl-butyric acid (2R, 3R,11bR)-3-isobutyl-9,10-dimethoxy-1,3,4,6,7,11b-hexahydro-2H-pyrido[2,1-a]isoquinolin-2-yl ester], the “Subjects with headache (only AE in >1 subject)” value in data set [3] (2 subjects) was determined as 8.3%. For the same compound, in data set [3] (setting [4]), the “Subjects with TEAE: Constipation” value is 0 n, %; the “Subjects with TEAE: Dizziness postural” value was 0 n, %; the “Subjects with TEAE: Gastrointestinal Disorders” value is reported as 0 n, %; the “Subjects with TEAE: Headache” value was 0 n, %. Further, in data set [3] (setting [4]), the “Subjects with TEAE: Injury, Poisoning and Procedural Complications” value is given as 0 n, %; the “Subjects with TEAE: Nausea” value is 0 n, %; the “Subjects with TEAE: Nervous System Disorders” value is listed as 0 n, %; the “Subjects with TEAE: Procedural dizziness” value is given as 0 n, %. Further, the “Subjects with treatment-emergent adverse event: Overall” value in data set [3] (setting [4]) is recorded as 0 n, %. Moreover, in data set [3] (NBI-98854 (50 mg)), the “Subjects with TEAE: Constipation” value was 1 (4.2) n, %; the “Subjects with TEAE: Dizziness postural” value is listed as 1 (4.2) n, %; the “Subjects with TEAE: Gastrointestinal Disorders” value is on record as 2 (8.3) n, %; the “Subjects with TEAE: Headache” value is recorded as 2 (8.3) n, %. Besides, in data set [3] (NBI-98854 (50 mg)), the “Subjects with TEAE: Injury, Poisoning and Procedural Complications” value is 1 (4.2) n, %; the “Subjects with TEAE: Nausea” value is listed as 1 (4.2) n, %; the “Subjects with TEAE: Nervous System Disorders” value is reported as 3 (12.5) n, %; the “Subjects with TEAE: Procedural dizziness” value is reported as 1 (4.2) n, %. Besides, the “Subjects with treatment-emergent adverse event: Overall” value in data set [3] (NBI-98854 (50 mg)) is 5 (20.8) n, %. In addition, the Tolerability result in data set [3] (administered alone and concomitantly with ketoconazole in healthy volunteers) is on record as “well tolerated”. In data set [3] (all AEs after the initial treatment with NBI-98854 alone, onset Day 1 or 2, five subjects, 6 AEs), the “Subjects who experienced AEs during the study” value was found to be 20.8%. In data set [3] (during the study), the “12-lead ECGs” value was “no abnormal ECGs that were assessed as clinically significant”, the Body weight changes entry is recorded as “no important changes in body weight” and the Physical examination findings entry is reported as “No abnormal physical examination findings”. Also, the “Vital signs including orthostatic changes” value in data set [3] (postdose) was “No clinically relevant postdose mean vital signs changes”. Further, the “Clinical laboratory values (hematology, serum chemistry, urinalysis)” value in data set [3] (pre- and postdose) is reported as “no results considered clinically significant”. For the same compound, in data set [3] (whole study), the “Deaths, SAEs, discontinuations due to an AE” value was “no deaths, SAEs, or discontinuations due to an AE” and the “Intensity of AEs” value is recorded as “mild in intensity”. In addition, in data set [1], the “affinity for more than 80 binding sites, including receptors, monoamine transporters, and ion channels” value is on record as “little to no affinity”. Besides, in data set [2] (NBI-98854 (50 mg) alone, N = 24), the “CL/F Mean (SD)” value is listed as 16.3 (5.94) L/hr. Moreover, the “CL/F Mean (SD)” value in data set [2] (NBI-98854 (80 mg) + Ketoconazole (200 mg), N = 24) was 7.96 (2.75) L/hr. For the same compound, in data set [2] (analyte NBI-98854 in plasma, NBI-98854 (50 mg) alone, N = 24), the “Tlag Mean (SD)” value is listed as 0.11 (0.13) hours. In data set [2] (analyte NBI-98854 in plasma, NBI-98854 (80 mg) + Ketoconazole (200 mg), N = 24), the “Tlag Mean (SD)” value was 0.02 (0.07) hours. Moreover, in data set [2] (setting [5]), the AUC(0-inf) was 3470 ng·h/mL and the Cmax came out at 425 ng/mL. For the same compound, in data set [2] (setting [6]), the AUC(0-inf) stood at 7340 ng·h/mL, the Cmax was 624 ng/mL and the half-life is 20 h. Besides, the MRT in data set [2] (both sexes, human, oral, analyte NBI-98854 in plasma, NBI-98854 (80 mg) + Ketoconazole (200 mg), N = 24, read-out: MRT Mean (SD)) is 22 h. In addition, the AUC(0-t) in data set [2] (both sexes, human, plasma, oral, 50 mg, analyte NBI-98854 in plasma, NBI-98854 (50 mg) alone, N = 24, read-out: AUC0-24 Mean (SD)) was determined as 2580 ng·h/mL. In addition, the AUC(0-t) in data set [2] (both sexes, human, plasma, oral, 50 mg, analyte NBI-98854 in plasma, NBI-98854 (50 mg) alone, N = 24, read-out: AUC0-tlast Mean (SD)) is 3420 ng·h/mL. Also, the AUC(0-t) in data set [2] (both sexes, human, plasma, oral, analyte NBI-98854 in plasma, NBI-98854 (80 mg) + Ketoconazole (200 mg), N = 24, read-out: AUC0-24 Mean (SD)) came to 4820 ng·h/mL. Moreover, the AUC(0-t) in data set [2] (both sexes, human, plasma, oral, analyte NBI-98854 in plasma, NBI-98854 (80 mg) + Ketoconazole (200 mg), N = 24, read-out: AUC0-tlast Mean (SD)) was 7100 ng·h/mL. Also, the “inhibition of uptake through VMAT1” value at human VMAT1 transporter (listed as VBZ) is reported as “no significant inhibitory activity; also recorded: no significant effect”.
Take `CC(=O)N1CCN(c2ccc(OCC3COC(Cn4ccnc4)(c4ccc(Cl)cc4Cl)O3)cc2)CC1` (centres unmarked) [Ketoconazole, ketoconazole, reference compound]: the concentration at 1 h in data set [2] (both sexes, human, plasma, oral, 200 mg ketoconazole bid, Days 5 to 9 at 1 hour postdose, read-out: Mean plasma concentrations of ketoconazole) was in the range of 1640 to 5180 ng/mL.
